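Tested at 5 concentrations; 48 h exposure; 96-well plates; endpoints linearly interpolated, else capped at highest concentration. TGI marks complete inhibition of growth.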
Tests used:
Experiment in all cases: NCI tumour cell line growth inhibition, 48 h
CCRF-CEM leukemia = test system: CCRF-CEM leukemia
DU-145 prostate = test system: DU-145 prostate
HCC-2998 colon = test system: HCC-2998 colon
K-562 leukemia = test system: K-562 leukemia
KM12 colon = test system: KM12 colon
MOLT-4 leukemia = test system: MOLT-4 leukemia
OVCAR-3 ovarian = test system: OVCAR-3 ovarian
OVCAR-4 ovarian = test system: OVCAR-4 ovarian
SK-MEL-28 melanoma = test system: SK-MEL-28 melanoma
SK-OV-3 ovarian = test system: SK-OV-3 ovarian
SNB-75 CNS = test system: SNB-75 CNS
SW-620 colon = test system: SW-620 colon
UACC-62 melanoma = test system: UACC-62 melanoma

## NC(=S)SCCC(=O)O
CCRF-CEM leukemia
  TGI: > 100 µM
DU-145 prostate
  TGI: > 100 µM
HCC-2998 colon
  TGI: > 100 µM
K-562 leukemia
  TGI: > 100 µM
KM12 colon
  TGI: > 100 µM
MOLT-4 leukemia
  TGI: > 100 µM
OVCAR-3 ovarian
  TGI: > 100 µM
OVCAR-4 ovarian
  TGI: > 100 µM
SK-MEL-28 melanoma
  TGI: > 100 µM
SK-OV-3 ovarian
  TGI: > 100 µM
SNB-75 CNS
  TGI: > 100 µM
SW-620 colon
  TGI: > 100 µM
UACC-62 melanoma
  TGI: > 100 µM

## COC(C)(C)C(O)C(O)C[C@H](C)C1CC=C2C1(C)CCC1[C@@]3(C)CCC(OC(C)=O)C(C)(C)C3CC(OC3OC(COC(C)=O)C(O)C(O)C3O)[C@@]21C (some centres not stated)
CCRF-CEM leukemia
  TGI: 7.96 µM
DU-145 prostate
  TGI: > 10 µM
HCC-2998 colon
  TGI: 6.15 µM
K-562 leukemia
  TGI: > 10 µM
KM12 colon
  TGI: > 10 µM
MOLT-4 leukemia
  TGI: 4.13 µM
OVCAR-3 ovarian
  TGI: 9.79 µM
OVCAR-4 ovarian
  TGI: > 10 µM
SK-MEL-28 melanoma
  TGI: > 10 µM
SK-OV-3 ovarian
  TGI: > 10 µM
SNB-75 CNS
  TGI: > 10 µM
SW-620 colon
  TGI: > 10 µM
UACC-62 melanoma
  TGI: > 10 µM

## [N-]=[N+]=NC1(N=[N+]=[N-])C(=O)NN=C(c2ccccc2)C1=O (configuration not stated)
CCRF-CEM leukemia
  TGI: 83.9 µM
DU-145 prostate
  TGI: > 100 µM
HCC-2998 colon
  TGI: > 100 µM
K-562 leukemia
  TGI: > 100 µM
KM12 colon
  TGI: > 100 µM
MOLT-4 leukemia
  TGI: 73.6 µM
OVCAR-3 ovarian
  TGI: > 100 µM
OVCAR-4 ovarian
  TGI: > 100 µM
SK-MEL-28 melanoma
  TGI: 31.9 µM
SK-OV-3 ovarian
  TGI: > 100 µM
SNB-75 CNS
  TGI: > 100 µM
SW-620 colon
  TGI: > 100 µM
UACC-62 melanoma
  TGI: > 100 µM

## CC(=O)OCC1OC(n2c(C)c(N=Nc3ccc(C)cc3)c(C)c(C#N)c2=S)C(OC(C)=O)C(OC(C)=O)C1OC(C)=O (configuration not stated)
CCRF-CEM leukemia
  TGI: > 100 µM
DU-145 prostate
  TGI: > 100 µM
HCC-2998 colon
  TGI: > 100 µM
K-562 leukemia
  TGI: > 100 µM
KM12 colon
  TGI: > 100 µM
MOLT-4 leukemia
  TGI: > 100 µM
OVCAR-3 ovarian
  TGI: > 100 µM
OVCAR-4 ovarian
  TGI: > 100 µM
SK-MEL-28 melanoma
  TGI: > 100 µM
SK-OV-3 ovarian
  TGI: > 100 µM
SNB-75 CNS
  TGI: > 100 µM
SW-620 colon
  TGI: > 100 µM
UACC-62 melanoma
  TGI: > 100 µM

## CCCCCCNC(=O)c1cc(NCc2cc(OC)ccc2OC)ccc1O
CCRF-CEM leukemia
  TGI: 68.6 µM
DU-145 prostate
  TGI: > 100 µM
HCC-2998 colon
  TGI: 68.4 µM
K-562 leukemia
  TGI: 47.3 µM
KM12 colon
  TGI: 80 µM
MOLT-4 leukemia
  TGI: 66.5 µM
OVCAR-3 ovarian
  TGI: 7.05 µM
OVCAR-4 ovarian
  TGI: 70.5 µM
SK-MEL-28 melanoma
  TGI: > 100 µM
SK-OV-3 ovarian
  TGI: 36.9 µM
SNB-75 CNS
  TGI: 76.3 µM
SW-620 colon
  TGI: > 100 µM
UACC-62 melanoma
  TGI: 33 µM

## CCOC(=O)Cn1c(=O)c2nc(SC)sc2n(-c2ccc(C)cc2)c1=S
CCRF-CEM leukemia
  TGI: > 100 µM
DU-145 prostate
  TGI: > 100 µM
HCC-2998 colon
  TGI: > 100 µM
K-562 leukemia
  TGI: > 100 µM
KM12 colon
  TGI: > 100 µM
MOLT-4 leukemia
  TGI: > 100 µM
OVCAR-3 ovarian
  TGI: > 100 µM
OVCAR-4 ovarian
  TGI: 35.2 µM
SK-MEL-28 melanoma
  TGI: > 100 µM
SK-OV-3 ovarian
  TGI: > 100 µM
SNB-75 CNS
  TGI: 44.2 µM
SW-620 colon
  TGI: > 100 µM
UACC-62 melanoma
  TGI: > 100 µM

## O=C1c2ccccc2C(=O)c2c(OCC3CO3)ccc(OCC3CO3)c21 (configuration not stated)
CCRF-CEM leukemia
  TGI: 0.393 µM
DU-145 prostate
  TGI: 13.3 µM
HCC-2998 colon
  TGI: > 46.3 µM
K-562 leukemia
  TGI: 5.96 µM
KM12 colon
  TGI: 11.4 µM
MOLT-4 leukemia
  TGI: 0.95 µM
OVCAR-3 ovarian
  TGI: 10.7 µM
OVCAR-4 ovarian
  TGI: 30.9 µM
SK-MEL-28 melanoma
  TGI: 12 µM
SK-OV-3 ovarian
  TGI: 36.2 µM
SNB-75 CNS
  TGI: 29.9 µM
SW-620 colon
  TGI: 5.68 µM
UACC-62 melanoma
  TGI: 7.95 µM

## C[C@]12CC[C@@H]3c4ccc(OC(=O)c5ccccc5)cc4CC[C@H]3[C@@H]1CCC2OC(=O)c1cccc2c(=O)c3ccccc3[nH]c12 (some centres not stated)
CCRF-CEM leukemia
  TGI: > 100 µM
DU-145 prostate
  TGI: 42.6 µM
HCC-2998 colon
  TGI: 30 µM
K-562 leukemia
  TGI: > 100 µM
KM12 colon
  TGI: 29.6 µM
MOLT-4 leukemia
  TGI: > 100 µM
OVCAR-3 ovarian
  TGI: > 100 µM
OVCAR-4 ovarian
  TGI: 33.8 µM
SK-MEL-28 melanoma
  TGI: 30.6 µM
SK-OV-3 ovarian
  TGI: 74.2 µM
SNB-75 CNS
  TGI: 55.8 µM
SW-620 colon
  TGI: 24.5 µM
UACC-62 melanoma
  TGI: 31.3 µM

## O=S(=O)(O)c1cc(S(=O)(=O)O)c2c(N=Nc3cccc4ccccc34)c(O)ccc2c1
CCRF-CEM leukemia
  TGI: > 100 µM
DU-145 prostate
  TGI: > 100 µM
HCC-2998 colon
  TGI: > 100 µM
K-562 leukemia
  TGI: > 100 µM
KM12 colon
  TGI: > 100 µM
MOLT-4 leukemia
  TGI: > 100 µM
OVCAR-3 ovarian
  TGI: > 100 µM
OVCAR-4 ovarian
  TGI: > 100 µM
SK-MEL-28 melanoma
  TGI: > 100 µM
SK-OV-3 ovarian
  TGI: > 100 µM
SNB-75 CNS
  TGI: > 100 µM
SW-620 colon
  TGI: > 100 µM
UACC-62 melanoma
  TGI: > 100 µM

## O=C(O)c1ccc(Nc2ccnc3cc(Cl)ccc23)cc1O
CCRF-CEM leukemia
  TGI: > 100 µM
DU-145 prostate
  TGI: > 100 µM
HCC-2998 colon
  TGI: > 100 µM
K-562 leukemia
  TGI: > 100 µM
KM12 colon
  TGI: > 100 µM
MOLT-4 leukemia
  TGI: > 100 µM
OVCAR-3 ovarian
  TGI: > 100 µM
OVCAR-4 ovarian
  TGI: > 100 µM
SK-MEL-28 melanoma
  TGI: > 100 µM
SK-OV-3 ovarian
  TGI: > 100 µM
SNB-75 CNS
  TGI: > 100 µM
SW-620 colon
  TGI: > 100 µM
UACC-62 melanoma
  TGI: > 100 µM

## CC(C)(C)CN1[C@@H]2CCCC[C@H]2N(CC(C)(C)C)P1(=O)Cc1ccccc1
CCRF-CEM leukemia
  TGI: 31.3 µM
DU-145 prostate
  TGI: 30 µM
HCC-2998 colon
  TGI: 21.2 µM
K-562 leukemia
  TGI: 28.2 µM
KM12 colon
  TGI: 34.3 µM
MOLT-4 leukemia
  TGI: 27.5 µM
OVCAR-3 ovarian
  TGI: 23.5 µM
OVCAR-4 ovarian
  TGI: 24.9 µM
SK-MEL-28 melanoma
  TGI: 31.7 µM
SK-OV-3 ovarian
  TGI: 29.2 µM
SNB-75 CNS
  TGI: 24.1 µM
SW-620 colon
  TGI: 30.7 µM
UACC-62 melanoma
  TGI: 22.5 µM

## CN(C)c1ccc(N=Nc2cccc3ccoc23)cc1
CCRF-CEM leukemia
  TGI: > 100 µM
DU-145 prostate
  TGI: > 100 µM
HCC-2998 colon
  TGI: > 100 µM
K-562 leukemia
  TGI: > 100 µM
KM12 colon
  TGI: > 100 µM
MOLT-4 leukemia
  TGI: > 100 µM
OVCAR-3 ovarian
  TGI: > 100 µM
OVCAR-4 ovarian
  TGI: > 100 µM
SK-MEL-28 melanoma
  TGI: > 100 µM
SK-OV-3 ovarian
  TGI: > 100 µM
SNB-75 CNS
  TGI: > 100 µM
SW-620 colon
  TGI: > 100 µM
UACC-62 melanoma
  TGI: > 100 µM

## COC(=O)C1([C@@H]2C[C@@H](O)[C@]3(C)CC/C=C(\C)CCC[C@H](C)[C@H](O)[C@@H]2O3)CC1
CCRF-CEM leukemia
  TGI: > 100 µM
DU-145 prostate
  TGI: > 100 µM
HCC-2998 colon
  TGI: > 100 µM
K-562 leukemia
  TGI: > 100 µM
KM12 colon
  TGI: > 100 µM
MOLT-4 leukemia
  TGI: 88.8 µM
OVCAR-3 ovarian
  TGI: > 100 µM
OVCAR-4 ovarian
  TGI: > 100 µM
SK-MEL-28 melanoma
  TGI: > 100 µM
SK-OV-3 ovarian
  TGI: > 100 µM
SNB-75 CNS
  TGI: 17.8 µM
SW-620 colon
  TGI: > 100 µM
UACC-62 melanoma
  TGI: > 100 µM

## O=C(NO)c1cccc(OCc2ccc(Br)cc2)c1
CCRF-CEM leukemia
  TGI: > 20 µM
DU-145 prostate
  TGI: 13.7 µM
HCC-2998 colon
  TGI: 28.4 µM
K-562 leukemia
  TGI: > 47.5 µM
KM12 colon
  TGI: > 64.9 µM
MOLT-4 leukemia
  TGI: 18.3 µM
OVCAR-3 ovarian
  TGI: > 48.1 µM
OVCAR-4 ovarian
  TGI: > 100 µM
SK-MEL-28 melanoma
  TGI: > 100 µM
SK-OV-3 ovarian
  TGI: > 55.7 µM
SNB-75 CNS
  TGI: > 54.1 µM
SW-620 colon
  TGI: > 100 µM
UACC-62 melanoma
  TGI: 20.6 µM
